Results on 16 compounds are retold here after patent US9637472B2, “Substituted 6,5-fused bicyclic heteroaryl compounds” (Epizyme, Inc., priority 2011, dated 2017).

The assay has as its target EZH2 (Homo sapiens (Human), UniProt Q15910). The assay is described as follows: PRC2 enzyme assay on peptide substrates. The format is biochemical. The note with it: PRC2 enzyme assays on peptide substrates; 4 nM enzyme, 30 min preincubation at 25° C.; read-out: EZH2 IC50.

Sequence of EZH2 (Q15910 other isoform, or with tags, fused parts or gaps): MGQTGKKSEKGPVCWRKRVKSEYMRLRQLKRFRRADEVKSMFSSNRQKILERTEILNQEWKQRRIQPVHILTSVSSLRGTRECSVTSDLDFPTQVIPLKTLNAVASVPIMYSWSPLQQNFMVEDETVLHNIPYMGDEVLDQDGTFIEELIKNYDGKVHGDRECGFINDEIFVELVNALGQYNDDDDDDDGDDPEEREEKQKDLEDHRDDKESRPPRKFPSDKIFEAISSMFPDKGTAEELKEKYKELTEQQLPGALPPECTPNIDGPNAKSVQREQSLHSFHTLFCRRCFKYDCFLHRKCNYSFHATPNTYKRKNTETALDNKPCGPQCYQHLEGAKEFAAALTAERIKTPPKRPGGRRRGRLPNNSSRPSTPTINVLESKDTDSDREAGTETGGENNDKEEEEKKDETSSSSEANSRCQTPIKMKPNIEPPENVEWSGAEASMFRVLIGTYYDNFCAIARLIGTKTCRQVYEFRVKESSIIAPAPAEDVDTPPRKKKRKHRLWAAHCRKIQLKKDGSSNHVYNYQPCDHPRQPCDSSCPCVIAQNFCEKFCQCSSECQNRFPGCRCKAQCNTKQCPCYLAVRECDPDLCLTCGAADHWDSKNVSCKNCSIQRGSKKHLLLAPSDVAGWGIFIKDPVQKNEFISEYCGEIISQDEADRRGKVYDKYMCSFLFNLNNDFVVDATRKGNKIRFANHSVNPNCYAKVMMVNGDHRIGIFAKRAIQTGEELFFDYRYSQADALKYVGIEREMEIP
Sequence of EZH2 (O75530 whole entry partner): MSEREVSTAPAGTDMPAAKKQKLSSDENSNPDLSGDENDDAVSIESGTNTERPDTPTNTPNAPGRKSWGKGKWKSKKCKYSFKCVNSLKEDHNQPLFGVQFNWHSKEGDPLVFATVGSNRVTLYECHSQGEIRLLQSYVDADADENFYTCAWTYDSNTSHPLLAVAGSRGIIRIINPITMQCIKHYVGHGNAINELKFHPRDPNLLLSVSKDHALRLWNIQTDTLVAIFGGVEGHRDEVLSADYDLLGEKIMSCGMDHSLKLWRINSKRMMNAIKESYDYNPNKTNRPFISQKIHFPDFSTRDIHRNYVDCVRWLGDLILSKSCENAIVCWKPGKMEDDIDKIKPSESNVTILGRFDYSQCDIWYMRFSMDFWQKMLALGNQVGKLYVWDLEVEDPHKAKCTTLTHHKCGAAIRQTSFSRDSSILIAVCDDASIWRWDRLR
Sequence of EZH2 (Q15022 whole entry partner): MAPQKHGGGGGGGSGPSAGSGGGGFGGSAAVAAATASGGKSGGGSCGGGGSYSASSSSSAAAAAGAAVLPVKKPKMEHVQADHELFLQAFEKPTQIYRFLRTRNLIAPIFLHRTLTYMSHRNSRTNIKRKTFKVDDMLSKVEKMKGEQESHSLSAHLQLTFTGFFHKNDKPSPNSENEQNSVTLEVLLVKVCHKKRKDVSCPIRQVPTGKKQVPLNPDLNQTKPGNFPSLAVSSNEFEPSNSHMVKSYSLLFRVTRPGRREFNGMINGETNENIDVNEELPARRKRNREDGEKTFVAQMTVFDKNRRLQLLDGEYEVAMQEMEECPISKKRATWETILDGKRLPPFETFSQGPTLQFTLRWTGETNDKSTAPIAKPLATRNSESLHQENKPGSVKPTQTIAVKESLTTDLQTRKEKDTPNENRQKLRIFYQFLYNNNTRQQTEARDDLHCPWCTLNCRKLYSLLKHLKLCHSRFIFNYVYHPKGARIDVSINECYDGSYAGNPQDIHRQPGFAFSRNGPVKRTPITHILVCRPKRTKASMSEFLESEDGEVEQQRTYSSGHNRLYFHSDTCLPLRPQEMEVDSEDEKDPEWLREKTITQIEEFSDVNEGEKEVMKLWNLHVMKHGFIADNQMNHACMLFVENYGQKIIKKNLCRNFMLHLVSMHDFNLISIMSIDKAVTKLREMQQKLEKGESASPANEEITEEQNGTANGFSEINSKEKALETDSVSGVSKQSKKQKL
Sequence of EZH2 (Q09028 whole entry partner): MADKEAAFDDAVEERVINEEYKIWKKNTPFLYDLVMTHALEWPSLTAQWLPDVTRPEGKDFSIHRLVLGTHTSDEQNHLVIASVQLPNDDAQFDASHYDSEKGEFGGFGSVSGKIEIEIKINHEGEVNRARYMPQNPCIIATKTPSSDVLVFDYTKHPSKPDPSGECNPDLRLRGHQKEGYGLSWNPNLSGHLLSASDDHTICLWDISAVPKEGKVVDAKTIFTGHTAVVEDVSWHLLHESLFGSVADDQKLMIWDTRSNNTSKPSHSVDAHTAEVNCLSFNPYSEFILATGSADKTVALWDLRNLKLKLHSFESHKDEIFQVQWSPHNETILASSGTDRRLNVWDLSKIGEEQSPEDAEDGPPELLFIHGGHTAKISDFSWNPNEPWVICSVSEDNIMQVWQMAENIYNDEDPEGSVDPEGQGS

By IC50 is commonly meant the midpoint of a concentration-inhibition curve. With `Cc1cc(CN2CCOCC2)c(CNC(=O)c2cccc3c2cnn3C2CCCC2)c(=O)[nH]1` [Compound D-84], the IC50 is 3 to 10 µM.
Regarding `Cc1cc(COCCN(C)C)c(CNC(=O)c2cc(Br)cc3c2cnn3C2CCCC2)c(=O)[nH]1` [Compound D-85], the IC50 lay within 3 to 10 µM.
In the case of `Cc1cc(COCCCN(C)C)c(CNC(=O)c2cccc3c2cnn3C2CCCC2)c(=O)[nH]1` [Compound D-86] it was 3 to 10 µM; in that of `Cc1cc(C)c(CNC(=O)c2cc(COCCCN(C)C)cc3c2cnn3C2CCCC2)c(=O)[nH]1` [Compound D-87], 3 to 10 µM.
For the compound `Cc1cc(CO)c(CNC(=O)c2cccc3c2cnn3C2CCCC2)c(=O)[nH]1` [Compound D-88], the IC50 was 10 to 50 µM.
As for `Cc1cc(CNCC2CCOCC2)c(CNC(=O)c2cccc3c2cnn3C2CCCC2)c(=O)[nH]1` [Compound D-89], the IC50 fell in the range of 10 to 50 µM.
The result for `Cc1cc(COCCCN(C)C)c(CNC(=O)c2cc(Br)cc3c2cnn3C2CCCC2)c(=O)[nH]1` [Compound D-90] reads 10 to 50 µM.
As to `Cc1cc(C)c(CNC(=O)c2cc(CN3CCC[C@@H]3C(N)=O)cc3c2cnn3C2CCCC2)c(=O)[nH]1` [Compound D-93], the concentration for half-maximal inhibition (IC50) lay within 0.3 to 1 µM.
With `Cc1cc(C)c(CNC(=O)c2cc(CN3CCNC(=O)C3)cc3c2cnn3C2CCCC2)c(=O)[nH]1` [Compound D-94], the IC50 lay in the range of 0.3 to 1 µM.
In the case of `Cc1cc(C)c(CNC(=O)c2cc(C3=CCN(CCO)CC3)cc3c2cnn3C2CCCC2)c(=O)[nH]1` [Compound D-95] it was below 0.3 µM.
The result for `Cc1cc(C)c(CNC(=O)c2cc(C3CCN(CCN)CC3)cc3c2cnn3C2CCCC2)c(=O)[nH]1` [Compound D-96] reads below 0.3 µM.
The result for `Cc1cc(C)c(CNC(=O)c2cc(C3CCN(CCO)CC3)cc3c2cnn3C2CCCC2)c(=O)[nH]1` [Compound D-97] reads below 0.3 µM; that for `Cc1cc(C)c(CNC(=O)c2cc(Br)cc3c2cnn3C2CCN(C(=O)C3CCC3)CC2)c(=O)[nH]1` [Compound D-98], 0.3 to 1 µM.
Consider `Cc1cc(C)c(CNC(=O)c2cccc3c2ccn3C(C)C)c(=O)[nH]1` [Compound E-1], for which the half-inhibitory concentration (IC50) was 1 to 3 µM.
As to `Cc1cc(C)c(CNC(=O)c2cc(-c3ccc(CN4CCOCC4)cc3)cc3c2ccn3C2CCCC2)c(=O)[nH]1` [Compound E-2], the IC50 was below 0.3 µM.
In the case of `Cc1cc(C)c(CNC(=O)c2ccnc3c2ccn3C(C)C)c(=O)[nH]1` [Compound F-1] it was 3 to 10 µM.
